For the test, the system named is Siso. Put plainly: alkaline Comet assay. Particulars: 25 µM pentathiepin or 20 µM H2O2, 15 min, 0 °C. The format is cell-based, human. The source says:
Next, the potential of the pentathiepins 1–6 to damage nuclear DNA was investigated in the cell lines HAP-1, HAP-1.KO.GPx1, and Siso, with different expression levels of GPx1 and CAT (see Figure 7), by Comet Assay (Figure 12) with representative images in the Supplementary Materials (Figure S48).
With this assay, the intensity of DNA damage can be assessed on the level of a single cell, in case of the alkaline version detecting both single and double strand breaks as well as alkali-labile sites. The method presented here is an adaptation of the protocol published by Olive and Banath and based on the distinct electrophoretic mobility of damaged and intact genomic DNA. The latter has a low mobility; does thus not migrate in the electric field; and remains in a nucleoid shape after lysis, referred to as the comet head. In contrast, when strand breaks are created, free charged ends emerge and increase the electrophoretic mobility, prompting DNA segments to drift away from the comet head, thereby forming the so-called comet tail. As descriptor of still intact genomic DNA, the percentage of DNA in the comet head was selected. Per condition, 50,000 cells of either Siso, HAP-1, or HAP-1.KO.GPx1 were diluted in 1 mL of PBS and subsequently treated with either a 1% DMF aqueous solution as negative control, 20 µM of H2O2 as positive control, or 25 µM of pentathiepin for 15 min on ice to impair intracellular DNA repair mechanisms. Afterwards, 400 µL of the cell suspension was blended with 1.2 mL of a 1% low melting point agarose solution (40 °C) and smoothly distributed on agarose-precoated glass slides. Polymerization was finished after 3 min at RT, and the slides were horizontally submerged in alkaline lysis buffer (1.2 M NaCl, 0.1% N-lauryl-sarcosinate, 0.1 M Na-EDTA, 0.26 M NaOH) before storing them at 4 °C overnight. The slides were then rinsed three times in rinse/electrophoresis buffer (0.002 M Na-EDTA, 0.03 M NaOH) before electrophoretic separation was performed for 25 min at 0.6 V/cm. A neutralization step by adding distilled water was followed by staining the slides with 250 µL of an aqueous 10 µg/mL PI solution for 20 min. For visualization and image capturing, a DMi8 fluorescent microscope and LASX software (Leica Microsystems, Wetzlar, Germany) were used, and the comets scored with the help of CometScore2.0 (rexhoover.com). Per condition and replicate, at least 100 comets were analyzed to calculate a mean level of damage.

The structures appear in SMILES notation.

Regarding `CCOc1c2c(c3ccc(C(=O)N4CCCCC4)cn13)SSSSS2` [Compound 2, (6-Ethoxy-[1,2,3,4,5]pentathiepino[6,7-a]indolizin-9-yl)(piperidinyl)methanone], the “intact genomic DNA (Comet head)” value is reported as 30%.

For the origin of these results see article PMC8305076, “Comprehensive Evaluation of Biological Effects of Pentathiepins on Various Human Cancer Cell Lines and Insights into Their Mode of Action” (International Journal of Molecular Sciences, 2021).
